Experimental data taken from patent US7419997B2, “Tetrahydrocarbazole derivatives and their pharmaceutical use” (SmithKline Beecham Corporation, priority 2003, dated 2008).

test system: episomal HPV16 DNA in W12-20850 cells; test: W-12 cellular assay (episomal HPV-16 DNA, hybrid capture); format: cell-based, HPV16 (human papillomavirus); details: Human papillomavirus 16, 96 h, four days incubation, episomal HPV-16 DNA quantified by hybrid capture, inhibition relative to untreated control cells
Method: Compounds of the current invention are believed useful in the treatment and/or prophylaxis of conditions and diseases associated with HPV infection. Activity mediated through HPV was determined using the following W-12 cellular assay.
The W12 cell line used contains HPV16 DNA and was derived from a low-grade cervical dysplasia tissue by Margaret Stanley and subsequently clonally selected by Paul Lambert (University of Wisconsin). One of these clones, W12-20850, contains 1000 copies of episomal HPV16 DNA and was used in the cell-based assay. W12-20850 cells were routinely cultured with a gamma-irradiated (6000 rads) feeder layer of 3T3 cells. Assays, however, were run in the absence of a 3T3 feeder layer. W12-20850 and 3T3 cells were routinely split when they were sub-confluent. W12-20850 were grown in W12 Medium which is constituted of 25% DMEM (Gibco BRL, Cat # 12430-047), 75% F12 Media (Gibco BRL, Cat # 11765-021) and 2.5% FBS. The additives include […] Adenine (Sigma, Cat # A-9795), 0.4 mg/ml Hydrocortisone (Calbiochem, Cat # 386698), […] Bovine Insulin (Sigma, Cat # I-1882), 8.4 ng/ml cholera toxin (Fluka, Cat # 26694) and 10 ng/ml EGF (Invitrogen, Cat # 13247-051). 3T3 cells were grown in DMEM containing 10% FBS. Cell lines were incubated at 37° C., in the presence of 5% CO2.
For the assay, W12-20850 cells were seeded into a 96 well plate-containing compound. Plates were incubated at 37° C. in the presence of 5% CO2, for four days. On the fourth day, cells were lysed and the amount of episomal HPV-16 DNA was quantified using a non-radioactive hybrid capture technique with HPV-16 specific capture and detection probes. The percent inhibition relative to untreated control cells was then determined.
The hybrid capture assay is run in a 96 well plate format. Hybridization plates (Nunc Maxisorb Cat # 450320) were coated with a mixture of capture probe and ReactiBind solution for at least 4 hours and then washed with 0.2)(SSC, 0.05% Tween20 (SSCT) prior to blocking with 150 μl/well of 0.2 N NaOH, 1% Igepal, 10 mg/ml hsDNA for 6-8 hours. The hybridization was carried out by mixing 271 μl of lysed cells with 45 μl of denatured detection probe in 6M guanidine isothiocyanate. To prevent evaporation, 50 μl of mineral oil was added to each well. The plate was then heated to 90° C. for 6.5 minutes and the hybridization continued at 42° C. overnight. Assay plates were washed 6 times with SSC/T. Anti-digoxigenin HRP-conjugated Ab (Boehringer Mannheim 1207733, 1:5000) was incubated in the wells for 30 min at room temperature and washed with PBS/0.05% Tween-20. SuperSignal LBA substrate (Pierce Cat # 37070) was added, and chemiluminescence was measured using Wallac 1420 Victor plate reader.

IC50 [nM] | SMILES
> 7300 | O=C(NC1CCCc2c1[nH]c1ccc(Br)cc21)c1ccccc1[N+](=O)[O-] (centres unmarked) [Example 31, N-(6-Bromo-2,3,4,9-tetrahydro-1H-carbazol-1-yl)-2-nitrobenzamide]
12 | O=C(NC1CCCc2c1[nH]c1ccc(Cl)cc21)c1ccccc1F (centres unmarked) [Example 46A, N-(6-Chloro-2,3,4,9-tetrahydro-1H-carbazol-1-yl)-2-fluorobenzamide]
> 10000 | COc1ccccc1C(=O)NC1CCCc2c1[nH]c1ccc(Br)cc21 (centres unmarked) [Example 30, N-(6-Bromo-2,3,4,9-tetrahydro-1H-carbazol-1-yl)-2-methoxybenzamide]
5000 | O=C(N[C@H]1CCCc2c1[nH]c1ccc(Br)cc21)c1ccccc1 [Example 14C, N-[(1S)-6-bromo-2,3,4,9-tetrahydro-1H-carbazol-1-yl]benzamide]
9 | O=C(NC1CCCc2c1[nH]c1ccc(Br)cc21)c1ccccc1F (centres unmarked) [Example 29, N-(6-Bromo-2,3,4,9-tetrahydro-1H-carbazol-1-yl)-2-fluorobenzamide]
> 3000 | O=C(N[C@H]1CCCc2c1[nH]c1ccc(Cl)cc21)c1ccccc1F [Example 46C, N-[(1S)-6-chloro-2,3,4,9-tetrahydro-1H-carbazol-1-yl]-2-fluorobenzamide]
23 | Cc1cccc(C(=O)NC2CCCc3c2[nH]c2ccc(Br)cc32)c1 (centres unmarked) [Example 28, N-(6-Bromo-2,3,4,9-tetrahydro-1H-carbazol-1-yl)-3-methylbenzamide]
10 | O=C(N[C@@H]1CCCc2c1[nH]c1ccc(Br)cc21)c1ccccc1 [Example 14B, N-[(1R)-6-bromo-2,3,4,9-tetrahydro-1H-carbazol-1-yl]benzamide]
1400 | O=C(NC1CCCc2c1[nH]c1ccc(Br)cc21)c1ccccc1Cl (centres unmarked) [Example 32, N-(6-Bromo-2,3,4,9-tetrahydro-1H-carbazol-1-yl)-2-chlorobenzamide]
497 | Cc1ccccc1C(=O)NC1CCCc2c1[nH]c1ccc(Br)cc21 (centres unmarked) [Example 33, N-(6-Bromo-2,3,4,9-tetrahydro-1H-carbazol-1-yl)-2-methylbenzamide]
22 | COc1ccc(C(=O)NC2CCCc3c2[nH]c2ccc(Br)cc32)cc1 (centres unmarked) [Example 21, N-(6-Bromo-2,3,4,9-tetra hydro-1H-carbazol-1-yl)-4-methoxybenzamide]
7 | O=C(N[C@@H]1CCCc2c1[nH]c1ccc(Cl)cc21)c1ccccc1F [Example 46B, N-[(1R)-6-chloro-2,3,4,9-tetrahydro-1H-carbazol-1-yl]-2-fluorobenzamide]

Second part, the compound before the results:

SMILES | IC50 [nM]
O=C(N[C@H]1CCCc2c1[nH]c1ccc(Cl)cc21)c1ccccn1 [Example 45C, N-[(1S)-6-chloro-2,3,4,9-tetrahydro-1H-carbazol-1-yl]pyridine-2-carboxamide] | 6000
O=C(NC1CCCc2c1[nH]c1ccc(Br)cc21)c1ccc(F)cc1 (centres unmarked) [Example 20, N-(6-Bromo-2,3,4,9-tetrahydro-1H-carbazol-1-yl)-4-fluorobenzamide] | 20
O=C(N[C@H]1CCCc2c1[nH]c1ccc(Cl)cc21)c1ccccc1 [Example 36C, N-[(1S)-6-chloro-2,3,4,9-tetrahydro-1H-carbazol-1-yl]benzamide] | > 10000
Cn1ccc(C(=O)NC2CCCc3c2[nH]c2ccc(Cl)cc32)n1 (centres unmarked) [Example 49, N-(6-Chloro-2,3,4,9-tetrahydro-1H-carbazol-1-yl)-1-methyl-1H-pyrazole-3-carboxamide] | 1650
Cn1cncc1C(=O)NC1CCCc2c1[nH]c1ccc(Cl)cc21 (centres unmarked) [Example 47, N-(6-Chloro-2,3,4,9-tetrahydro-1H-carbazol-1-yl)-1-methyl-1H-imidazole-5-carboxamide] | 810
O=C(Nc1ccccc1)NC1CCCc2c1[nH]c1ccc(Cl)cc21 (centres unmarked) [Example 44, N-(6-Chloro-2,3,4,9-tetrahydro-1H-carbazol-1-yl)-N′-phenylurea] | 1700
O=C(NC1CCCc2c1[nH]c1ccc(Br)cc21)c1ccc(Cl)cc1 (centres unmarked) [Example 23, N-(6-Bromo-2,3,4,9-tetrahydro-1H-carbazol-1-yl)4-chlorobenzamide] | 17
O=S(=O)(NC1CCCc2c1[nH]c1ccc(Br)cc21)c1c(F)cccc1F (centres unmarked) [Example 54, N-(6-bromo-2,3,4,9-tetrahydro-1H-carbazol-1-yl)-2,6-difluorobenzenesulfonamide] | 94
O=C(NC1CCCc2c1[nH]c1ccc(Cl)cc21)c1c[nH]cn1 (centres unmarked) [Example 50, N-(6-Chloro-2,3,4,9-tetrahydro-1H-carbazol-1-yl)-1H-imidazole-4-carboxamide] | 440
O=C(N[C@@H]1CCCc2c1[nH]c1ccc(Cl)cc21)c1ccccn1 [Example 45B, N-[(1R)-6-chloro-2,3,4,9-tetrahydro-1H-carbazol-1-yl]pyridine-2-carboxamide] | 5
O=C(Cc1ccccc1)NC1CCCc2c1[nH]c1ccc(Br)cc21 (centres unmarked) [Example 15, N-(6-Bromo-2,3,4,9-tetrahydro-1H-carbazol-1-yl)-2-phenylacetamide] | 580
O=C(NC1CCCc2c1[nH]c1ccc(Br)cc21)c1cccnc1 (centres unmarked) [Example 39, N-(6-Bromo-2,3,4,9-tetrahydro-1H-carbazol-1-yl)nicotinamide] | 130
Cc1ccc(S(=O)(=O)NC2CCCc3c2[nH]c2ccc(Br)cc32)cc1 (centres unmarked) [Example 37, N-(6-Bromo-2,3,4,9-tetrahydro-1H-carbazol-1-yl)-4-methylbenzenesulfonamide] | 24
O=C(NC1CCCc2c1[nH]c1ccc(Cl)cc21)c1ccccn1 (centres unmarked) [Example 45A, N-(6-Chloro-2,3,4,9-tetrahydro-1H-carbazol-1-yl)-2-pyridinecarboxamide] | 10
O=C(NC1CCCc2c1[nH]c1ccc(Br)cc21)c1ccncc1 (centres unmarked) [Example 41, N-(6-Bromo-2,3,4,9-tetrahydro-1H-carbazol-1-yl)isonicotinamide] | 180
COc1ccc(NC(=O)NC2CCCc3c2[nH]c2ccc(Br)cc32)cc1 (centres unmarked) [Example 10, N-(6-Bromo-2,3,4,9-tetrahydro-1H-carbazol-1-yl)-N′-(4-methoxyphenyl)urea] | 24000
O=C(NC1CCCc2c1[nH]c1ccc(Br)cc21)c1c(F)cccc1F (centres unmarked) [Example 52, N-(6-bromo-2,3,4,9-tetrahydro-1H-carbazol-1-yl)-2,6-difluorobenzamide] | 45
O=C(NC1CCCc2c1[nH]c1ccc(Br)cc21)OCc1ccccc1 (centres unmarked) [Example 18, Benzyl 6-bromo-2,3,4,9-tetrahydro-1H-carbazol-1-ylcarbamate] | 44
O=C(Nc1ccccc1)NC1CCCc2c1[nH]c1ccccc21 (centres unmarked) [Example 42, N-Phenyl-N′-(2,3,4,9-tetrahydro-1H-carbazol-1-yl)urea] | > 10000
O=C(/C=C/c1ccccc1)NC1CCCc2c1[nH]c1ccc(Br)cc21 (centres unmarked) [Example 17, N-(6-Bromo-2,3,4,9-tetrahydro-1H-carbazol-1-yl)-3-phenylprop-2-enamide] | 318
COc1ccc(NC(=O)NC2CCCc3c2[nH]c2ccc(Br)cc32)cc1Cl (centres unmarked) [Example 12, N-(6-Bromo-2,3,4,9-tetrahydro-1H-carbazol-1-yl)-N′-(3-chloro-4-methoxyphenyl)urea] | > 10000
O=C(NC1CCCc2c1[nH]c1ccccc21)c1ccccc1 (centres unmarked) [Example 34, N-(2,3,4,9-Tetrahydro-1H-carbazol-1-yl)benzamide] | > 10000
O=C(CCc1ccccc1)NC1CCCc2c1[nH]c1ccc(Br)cc21 (centres unmarked) [Example 16, N-(6-Bromo-2,3,4,9-tetrahydro-1H-carbazol-1-yl)-3-phenylpropanamide] | 1200
Cn1nccc1C(=O)NC1CCCc2c1[nH]c1ccc(Cl)cc21 (centres unmarked) [Example 48, N-(6-Chloro-2,3,4,9-tetrahydro-1H-carbazol-1-yl)-1-methyl-1H-pyrazole-5-carboxamide] | 2240
O=C(NC1CCCc2c1[nH]c1ccc(Br)cc21)c1ccc(C(F)(F)F)cc1 (centres unmarked) [Example 25, N-(6-Bromo-2,3,4,9-tetrahydro-1H-carbazol-1-yl)-4-(trifluoromethyl)benzamide] | 58
O=S(=O)(NC1CCCc2c1[nH]c1ccc(Br)cc21)c1ccccc1F (centres unmarked) [Example 53, N-(6-bromo-2,3,4,9-tetrahydro-1H-carbazol-1-yl)-2-fluorobenzenesulfonamide] | 51
